Laboratory results from ChEMBL document CHEMBL1201862, “PubChem BioAssay data set” (2004).
Values belong to the compound of their own block, whether it stands above or below them. The source made the active and inactive calls.

Assays:
[1] = Luminescence Cell-Based Dose Retest to Confirm Inhibitors of Cancer Stem Cells. [Related pubchem assays (depositor defined):AID2717, AID2721]; format: functional; conditions: Homo sapiens
[2] = molecular target: T1, Heat shock factor protein 1 (Mus musculus, UniProt P38532); assay: HSF1 potentiators in luciferase reporter cells, confirmation, cell-based, NIH3T3, luminescence, dose retest (AID 435004); format: functional;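 note: stress induced by proteasome inhibitor MG132 added 30 min after compound; luciferase reporter driven by HSF1 response element in NIH3T3 cells; actives raise luminescence as potentiators of the MG132 stress response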
T1 sequence (P38532 whole entry): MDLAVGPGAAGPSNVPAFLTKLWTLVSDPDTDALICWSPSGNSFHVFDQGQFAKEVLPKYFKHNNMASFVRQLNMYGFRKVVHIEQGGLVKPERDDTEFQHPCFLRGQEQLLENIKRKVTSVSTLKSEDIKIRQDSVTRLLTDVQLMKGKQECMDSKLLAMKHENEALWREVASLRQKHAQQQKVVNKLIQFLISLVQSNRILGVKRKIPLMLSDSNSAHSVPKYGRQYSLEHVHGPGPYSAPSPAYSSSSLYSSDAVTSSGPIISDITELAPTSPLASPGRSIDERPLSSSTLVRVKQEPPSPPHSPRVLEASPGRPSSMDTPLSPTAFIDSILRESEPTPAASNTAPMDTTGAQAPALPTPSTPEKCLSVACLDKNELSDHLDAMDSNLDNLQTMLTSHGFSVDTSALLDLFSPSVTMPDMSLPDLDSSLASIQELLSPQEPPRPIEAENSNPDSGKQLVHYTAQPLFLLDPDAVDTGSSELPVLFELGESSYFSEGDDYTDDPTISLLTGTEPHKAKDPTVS

[3] = HEK293T cell cytotoxicity, dose response, cytotoxicity control for HIV Vif inhibitor project, cherry-picks (AID 652208); format: functional, cell-based
[4] = molecular target: 5-hydroxytryptamine receptor 2A (Mus musculus, UniProt P35363); format: functional, cell-based;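 note: CHO-K1 cells with tagged receptor and beta-arrestin; agonist potency measured as compound-induced activation of the receptor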
5-hydroxytryptamine receptor 2A, sequence (P35363 whole entry): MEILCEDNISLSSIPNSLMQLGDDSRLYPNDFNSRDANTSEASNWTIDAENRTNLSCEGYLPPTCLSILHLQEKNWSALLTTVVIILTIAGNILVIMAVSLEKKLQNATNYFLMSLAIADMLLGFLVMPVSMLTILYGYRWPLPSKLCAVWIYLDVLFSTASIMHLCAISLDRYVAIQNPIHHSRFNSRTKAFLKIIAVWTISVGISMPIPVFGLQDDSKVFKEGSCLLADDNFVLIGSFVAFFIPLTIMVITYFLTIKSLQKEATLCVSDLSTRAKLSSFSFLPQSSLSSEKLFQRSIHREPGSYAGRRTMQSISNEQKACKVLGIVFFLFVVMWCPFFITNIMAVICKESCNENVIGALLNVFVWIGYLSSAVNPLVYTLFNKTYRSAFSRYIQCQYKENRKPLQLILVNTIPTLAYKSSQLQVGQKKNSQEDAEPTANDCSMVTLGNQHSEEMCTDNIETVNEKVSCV

[5] = molecular target: Mu-type opioid receptor (Homo sapiens, UniProt P35372); format: functional, cell-based;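 note: U2OS cells with beta-arrestin recruitment to OPRM1 by beta-gal complementation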
Mu-type opioid receptor, sequence (P35372 whole entry): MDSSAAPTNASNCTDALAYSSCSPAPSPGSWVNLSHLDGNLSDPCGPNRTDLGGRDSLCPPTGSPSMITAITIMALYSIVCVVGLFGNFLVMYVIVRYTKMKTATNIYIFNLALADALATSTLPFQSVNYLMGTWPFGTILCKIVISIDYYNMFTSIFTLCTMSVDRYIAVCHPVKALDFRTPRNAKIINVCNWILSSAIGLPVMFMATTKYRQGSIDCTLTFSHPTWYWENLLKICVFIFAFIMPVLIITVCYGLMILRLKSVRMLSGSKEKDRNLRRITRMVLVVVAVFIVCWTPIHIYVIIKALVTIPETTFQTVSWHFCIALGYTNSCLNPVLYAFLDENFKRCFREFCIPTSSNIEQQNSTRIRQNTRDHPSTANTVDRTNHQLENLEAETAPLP

[6] = molecular target: T2, Sentrin-specific protease 6 (Homo sapiens, UniProt Q9GZR1); format: functional;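 note: Luminescence-based dose-response confirmatory assay of SENP6 inhibition, following up an ultra-high-throughput screen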
T2 sequence (Q9GZR1 whole entry): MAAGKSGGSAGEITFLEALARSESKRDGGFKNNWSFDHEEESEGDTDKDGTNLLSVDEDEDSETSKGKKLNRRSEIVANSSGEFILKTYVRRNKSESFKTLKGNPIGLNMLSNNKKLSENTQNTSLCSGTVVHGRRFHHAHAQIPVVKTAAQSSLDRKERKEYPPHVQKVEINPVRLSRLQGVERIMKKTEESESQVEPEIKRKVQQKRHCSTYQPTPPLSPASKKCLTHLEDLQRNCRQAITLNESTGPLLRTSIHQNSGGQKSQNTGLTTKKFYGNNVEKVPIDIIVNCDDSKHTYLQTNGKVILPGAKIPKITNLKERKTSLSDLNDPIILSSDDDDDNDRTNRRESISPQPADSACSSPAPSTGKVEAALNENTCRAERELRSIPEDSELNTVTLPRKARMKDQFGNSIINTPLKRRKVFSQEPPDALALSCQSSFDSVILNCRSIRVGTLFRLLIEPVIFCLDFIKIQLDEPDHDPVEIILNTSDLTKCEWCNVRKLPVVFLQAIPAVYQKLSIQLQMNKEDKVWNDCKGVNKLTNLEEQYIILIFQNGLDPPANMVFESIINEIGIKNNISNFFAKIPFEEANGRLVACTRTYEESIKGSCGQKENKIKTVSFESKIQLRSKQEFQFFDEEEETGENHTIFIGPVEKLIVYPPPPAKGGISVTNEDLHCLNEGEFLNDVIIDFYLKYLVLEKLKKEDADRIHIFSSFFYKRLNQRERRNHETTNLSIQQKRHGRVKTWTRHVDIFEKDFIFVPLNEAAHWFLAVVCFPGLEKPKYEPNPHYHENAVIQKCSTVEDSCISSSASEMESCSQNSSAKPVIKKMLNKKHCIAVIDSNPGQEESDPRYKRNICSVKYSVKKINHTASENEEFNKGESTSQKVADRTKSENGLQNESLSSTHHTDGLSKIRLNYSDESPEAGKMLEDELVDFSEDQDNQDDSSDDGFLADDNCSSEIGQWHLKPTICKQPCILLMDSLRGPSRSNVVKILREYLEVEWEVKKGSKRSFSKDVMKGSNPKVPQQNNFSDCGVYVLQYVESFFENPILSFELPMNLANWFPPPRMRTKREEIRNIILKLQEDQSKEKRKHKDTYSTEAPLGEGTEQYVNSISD

[7] = molecular target: T3, Sentrin-specific protease 8 (Homo sapiens, UniProt Q96LD8); format: functional
T3 sequence (Q96LD8 whole entry): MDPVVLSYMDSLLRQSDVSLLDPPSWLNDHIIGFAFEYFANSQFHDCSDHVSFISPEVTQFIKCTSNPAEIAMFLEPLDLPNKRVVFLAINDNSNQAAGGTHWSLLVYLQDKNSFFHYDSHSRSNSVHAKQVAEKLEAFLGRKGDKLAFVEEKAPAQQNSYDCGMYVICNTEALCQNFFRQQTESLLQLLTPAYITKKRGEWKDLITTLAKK

[8] = molecular target: T4, Caspase-3 (Homo sapiens, UniProt P42574); format: functional;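 note: Dose-response selectivity test against caspase-3 for candidate inhibitors of sentrin-specific proteases (SENPs)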
T4 sequence (P42574 whole entry): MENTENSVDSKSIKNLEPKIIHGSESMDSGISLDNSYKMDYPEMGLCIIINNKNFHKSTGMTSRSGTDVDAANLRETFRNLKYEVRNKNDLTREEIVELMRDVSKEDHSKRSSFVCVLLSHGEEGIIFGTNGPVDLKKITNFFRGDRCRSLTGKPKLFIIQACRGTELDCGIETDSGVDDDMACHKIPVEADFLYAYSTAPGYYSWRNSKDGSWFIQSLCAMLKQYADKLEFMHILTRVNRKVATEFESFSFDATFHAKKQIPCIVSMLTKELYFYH

[9] = molecular target: T3, Sentrin-specific protease 8; format: functional; remark: listed apart in the source
[10] = molecular target: T3, Sentrin-specific protease 8; format: functional; remark: listed apart in the source
[11] = molecular target: T5, Caspase-6 (Homo sapiens, UniProt P55212); assay: human caspase-6 inhibitors, dose response, biochemical, VEID-R110 fluorescence, cherry-pick (AID 720632)
T5 sequence (P55212 whole entry): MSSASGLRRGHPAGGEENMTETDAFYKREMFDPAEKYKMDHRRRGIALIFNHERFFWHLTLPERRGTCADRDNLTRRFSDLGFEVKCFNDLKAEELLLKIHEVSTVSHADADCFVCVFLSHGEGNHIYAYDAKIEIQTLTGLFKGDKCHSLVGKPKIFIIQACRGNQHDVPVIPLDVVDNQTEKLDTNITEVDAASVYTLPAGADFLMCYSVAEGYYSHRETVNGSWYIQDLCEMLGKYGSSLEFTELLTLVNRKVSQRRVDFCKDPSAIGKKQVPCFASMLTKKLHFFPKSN

[12] = molecular target: T6, Sentrin-specific protease 7 (Homo sapiens, UniProt Q9BQF6); format: functional;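 note: Luminescence-based dose-response confirmation of ultra-high-throughput screening hits, measuring inhibition of SENP7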
T6 sequence (Q9BQF6 whole entry): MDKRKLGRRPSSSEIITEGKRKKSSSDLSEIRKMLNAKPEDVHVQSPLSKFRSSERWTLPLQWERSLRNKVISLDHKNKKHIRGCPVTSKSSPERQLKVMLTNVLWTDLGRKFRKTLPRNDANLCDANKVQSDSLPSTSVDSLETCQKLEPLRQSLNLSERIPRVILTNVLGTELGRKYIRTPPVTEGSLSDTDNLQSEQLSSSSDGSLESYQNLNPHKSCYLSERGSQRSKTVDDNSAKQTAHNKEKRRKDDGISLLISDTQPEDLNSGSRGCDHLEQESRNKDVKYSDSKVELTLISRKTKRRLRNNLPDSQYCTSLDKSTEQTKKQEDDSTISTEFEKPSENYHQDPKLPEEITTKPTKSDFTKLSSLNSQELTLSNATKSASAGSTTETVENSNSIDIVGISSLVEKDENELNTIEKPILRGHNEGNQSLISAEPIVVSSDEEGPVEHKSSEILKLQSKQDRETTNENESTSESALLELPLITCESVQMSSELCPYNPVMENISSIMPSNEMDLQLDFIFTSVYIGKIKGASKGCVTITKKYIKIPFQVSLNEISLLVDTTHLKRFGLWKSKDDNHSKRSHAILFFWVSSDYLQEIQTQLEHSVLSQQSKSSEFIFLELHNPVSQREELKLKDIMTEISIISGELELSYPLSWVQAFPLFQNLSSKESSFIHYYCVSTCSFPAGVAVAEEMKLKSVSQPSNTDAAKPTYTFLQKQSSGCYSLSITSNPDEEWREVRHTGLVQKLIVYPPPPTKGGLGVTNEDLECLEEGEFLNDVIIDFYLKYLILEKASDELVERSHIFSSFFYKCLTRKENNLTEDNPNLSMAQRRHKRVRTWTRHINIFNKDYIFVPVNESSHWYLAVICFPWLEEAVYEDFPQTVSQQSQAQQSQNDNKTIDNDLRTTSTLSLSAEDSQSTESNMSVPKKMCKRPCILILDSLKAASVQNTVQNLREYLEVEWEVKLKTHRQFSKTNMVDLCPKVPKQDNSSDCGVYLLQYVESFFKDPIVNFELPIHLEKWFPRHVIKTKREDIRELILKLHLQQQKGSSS

[13] = molecular target: T7, Methionyl-tRNA synthetase, putative (Trypanosoma brucei brucei, UniProt Q38C91); format: functional, Trypanosoma brucei brucei strain 927/4 GUTat10.1
T7 sequence (Q38C91 whole entry): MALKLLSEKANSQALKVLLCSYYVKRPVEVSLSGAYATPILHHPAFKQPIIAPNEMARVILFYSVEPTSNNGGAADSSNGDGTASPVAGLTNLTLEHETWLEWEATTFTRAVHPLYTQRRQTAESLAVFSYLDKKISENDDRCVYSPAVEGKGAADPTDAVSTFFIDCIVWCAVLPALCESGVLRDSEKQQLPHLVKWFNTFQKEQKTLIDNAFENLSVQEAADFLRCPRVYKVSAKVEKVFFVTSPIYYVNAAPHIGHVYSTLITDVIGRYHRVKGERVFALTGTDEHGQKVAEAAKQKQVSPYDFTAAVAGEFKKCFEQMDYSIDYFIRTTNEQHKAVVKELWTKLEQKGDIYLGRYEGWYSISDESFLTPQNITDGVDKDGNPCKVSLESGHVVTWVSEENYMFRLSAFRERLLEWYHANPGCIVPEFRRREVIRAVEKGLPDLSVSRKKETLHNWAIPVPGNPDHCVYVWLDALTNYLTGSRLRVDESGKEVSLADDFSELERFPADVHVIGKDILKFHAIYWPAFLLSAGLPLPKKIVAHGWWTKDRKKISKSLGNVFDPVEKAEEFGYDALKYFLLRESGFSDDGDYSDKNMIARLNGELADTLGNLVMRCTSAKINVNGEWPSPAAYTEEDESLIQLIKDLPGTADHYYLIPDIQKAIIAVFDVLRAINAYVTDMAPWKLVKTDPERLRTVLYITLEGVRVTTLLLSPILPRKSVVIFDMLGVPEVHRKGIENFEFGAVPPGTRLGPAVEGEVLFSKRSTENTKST

[14] = Counterscreen for inhibitors of Trypanosoma brucei methionyl tRNA synthetase (MetRS): Luminescence-based cell-based high throughput dose response assay to identify compounds that are cytotoxic to Jurkat human T lymphocyte cells.; format: functional
[15] = molecular target: T7, Methionyl-tRNA synthetase, putative; format: functional, Trypanosoma brucei brucei strain 927/4 GUTat10.1; remark: listed apart in the source
[16] = Counterscreen for activators of the function of SWI/SNF related, matrix associated, actin dependent regulator of chromatin, subfamily a, member 2 (SMARCA2, BRM): Luminescence-based cell-based high throughput dose response assay to identify non-selective compounds using the VP16 reporter assay.; format: functional
[17] = molecular target: SWI/SNF-related matrix-associated actin-dependent regulator of chromatin subfamily A member 2 (Homo sapiens, UniProt P51531); assay: Luminescence-based cell-based high throughput dose response assay to identify activators of the function of SWI/SNF related, matrix associated, actin dependent regulator of chromatin, subfamily a, member 2 (SMARCA2, BRM).; format: functional
SWI/SNF-related matrix-associated actin-dependent regulator of chromatin subfamily A member 2, sequence (P51531 whole entry): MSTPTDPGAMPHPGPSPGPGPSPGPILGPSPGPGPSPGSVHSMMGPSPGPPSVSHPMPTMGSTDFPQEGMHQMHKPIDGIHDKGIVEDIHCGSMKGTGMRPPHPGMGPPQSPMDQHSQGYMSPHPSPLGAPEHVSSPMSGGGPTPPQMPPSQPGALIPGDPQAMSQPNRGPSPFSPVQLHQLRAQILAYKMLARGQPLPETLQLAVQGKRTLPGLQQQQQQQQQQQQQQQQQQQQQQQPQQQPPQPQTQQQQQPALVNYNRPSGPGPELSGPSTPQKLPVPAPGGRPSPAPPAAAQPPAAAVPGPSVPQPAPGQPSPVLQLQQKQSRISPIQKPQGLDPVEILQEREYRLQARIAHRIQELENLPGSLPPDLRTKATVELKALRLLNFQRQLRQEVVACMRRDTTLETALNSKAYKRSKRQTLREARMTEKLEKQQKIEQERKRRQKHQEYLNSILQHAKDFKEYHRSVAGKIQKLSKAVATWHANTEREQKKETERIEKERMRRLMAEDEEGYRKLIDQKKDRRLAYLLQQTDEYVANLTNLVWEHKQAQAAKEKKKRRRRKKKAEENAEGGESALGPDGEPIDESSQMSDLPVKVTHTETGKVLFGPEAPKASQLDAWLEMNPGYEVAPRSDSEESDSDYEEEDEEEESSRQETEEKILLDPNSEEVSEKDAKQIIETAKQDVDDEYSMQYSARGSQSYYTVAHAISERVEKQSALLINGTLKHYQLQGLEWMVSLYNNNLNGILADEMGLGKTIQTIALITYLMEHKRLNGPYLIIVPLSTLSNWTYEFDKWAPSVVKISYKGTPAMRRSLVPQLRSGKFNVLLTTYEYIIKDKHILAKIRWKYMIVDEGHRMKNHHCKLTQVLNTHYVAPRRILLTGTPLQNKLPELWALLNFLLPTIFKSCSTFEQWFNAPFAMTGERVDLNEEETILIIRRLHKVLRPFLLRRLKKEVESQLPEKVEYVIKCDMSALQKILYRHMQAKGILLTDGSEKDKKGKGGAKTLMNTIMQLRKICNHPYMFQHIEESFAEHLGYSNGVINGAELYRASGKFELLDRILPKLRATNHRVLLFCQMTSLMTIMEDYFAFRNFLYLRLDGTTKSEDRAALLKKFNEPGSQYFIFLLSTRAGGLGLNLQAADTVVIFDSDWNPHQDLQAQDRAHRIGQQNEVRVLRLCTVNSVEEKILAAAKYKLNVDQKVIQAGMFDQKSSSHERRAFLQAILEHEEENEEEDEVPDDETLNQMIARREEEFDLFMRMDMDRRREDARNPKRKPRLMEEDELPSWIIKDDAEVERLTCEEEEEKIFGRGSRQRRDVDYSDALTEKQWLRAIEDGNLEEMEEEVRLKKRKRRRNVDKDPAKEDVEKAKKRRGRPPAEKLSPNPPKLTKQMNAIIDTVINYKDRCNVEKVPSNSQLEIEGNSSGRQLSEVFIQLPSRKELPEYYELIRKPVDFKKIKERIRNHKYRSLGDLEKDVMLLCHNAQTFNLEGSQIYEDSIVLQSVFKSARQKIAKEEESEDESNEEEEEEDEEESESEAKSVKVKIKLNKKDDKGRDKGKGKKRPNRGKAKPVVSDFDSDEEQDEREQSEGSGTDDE

[18] = HEK293 cell viability, dose response, counter-screen for EBV LMP1 inhibitor project, dry powder, set 2 (AID 624374); format: functional

Compound: O=C(COC(=O)/C=C/C(=O)OCC(=O)Nc1ccccc1F)Nc1ccccc1F
AC50 [1]: 7.02 µM (active)
EC50 [2]: 11.1 µM (active)
AC50 [3]: 44.3 µM (active)

EC50 [4]: 0.965 µM (active)
EC50 [5]: 92.5 µM (inactive)
Compound: CCOc1ccc(CN2CCN(C(=O)c3ccco3)CC2)cc1

IC50 [6]: < 1.55 µM (active)
IC50 [8]: 2.67 µM (active)
AC50 [11]: 11.1 µM (active)
IC50 [12]: 1.79 µM (active)
Compound: O=C1OC(Nc2cc(Br)cc3cccnc23)c2ccccc21 (stereo not given)
IC50 [7]: > 100 µM (inactive)
IC50 [9]: 8.4 µM (active)
IC50 [10]: 1.63 µM (active)

EC50 [4]: 0.0105 µM (active)
EC50 [5]: 92.5 µM (inactive)
Compound: CC12CCC(C(=O)N(CCCCN3CCN(c4ccccn4)CC3)C1=O)C2(C)C (stereo not given)

Compound: Brc1ccc2[nH]c3c(NCc4ccccn4)ncnc3c2c1
IC50 [13]: 5.71 µM (active)
IC50 [14]: 83.3 µM (inactive)
IC50 [15]: 3.47 µM (active)

Compound: Oc1nc(CSc2ncc(C(F)(F)F)cc2Cl)nc2ccccc12
IC50 [13]: 14.4 µM (inactive)
IC50 [14]: 35.7 µM (inactive)
IC50 [15]: 5.35 µM (active)

Compound: N#CCn1cnc2sc(-c3ccccc3)cc2c1=O
EC50 [16]: > 91.2 µM (inactive)
EC50 [17]: > 91.2 µM (inactive)

Compound: N#C[C@H]1[C@@H](c2ccc(-c3cccnc3)cc2)[C@@H](CO)N1C(=O)Nc1ccc(F)cc1
AbsAC35 [18]: 162.11 µM

Compound: CC(C)(C)CC(=O)O/N=C(\N)c1ccccn1
EC50 [16]: > 91.1 µM (inactive)
EC50 [17]: > 91.1 µM (inactive)
